Several values for one entry are separate records, joined by “and”; a condition that tells them apart may be missing. Equal values may be shown once. Read-outs that look alike come from different tables or passages of the source.
Tests used:
formalin model = conditions: mouse; cited from earlier work
NMDA receptor [1] = assay: [3H]CGS19755 radioligand binding to Triton-X-treated synaptosomal membranes of rat forebrain; design: species or system rat (male Sprague-Dawley); conditions: [3H]CGS19755 10 nM, ice-bath 30 min, mean, standard error, n=3
Experimental: The formula I compounds were tested for their ability to inhibit NMDA receptor binding to rat membranes in a radioligand binding assay using [^3 H]CGS19755. For these radioligand binding assays, male Sprague-Dawley rats were used. Displacement of the specific binding [^3 H]CGS19755 (10 nM)to Triton-X-treated synaptosomal membranes of rat forebrain was used to determine NMDA receptor affinity. Non-specific binding was determined using 10 μM L-glutamate. Samples were incubated in an ice-bath for 30 minutes, and bound ligand was separated from the free ligand by rapid filtration through WHATMAN GF/B glass fiber filters. Murphy et al, British J. Pharmacol., 95, 932-938 (1988). The concentration of the formula I compound that inhibited 50% binding (IC50, mean standard error, n=3)was calculated by linear regression of displacement data transformed to the Hill equation as described by Bennett. Bennett, Neurotransmitter Receptor Binding, 57-90 (1978).

NMDA receptor [2] = assay: [3H]MK-801 binding to well washed rat cortical membranes; conditions: [3H]MK-801 2.5 nM, glutamate 0.001 μM and glycine 10 μM, 27° C., two hours, mean of three experiments
Experimental: The formula I compounds were also tested for their ability to inhibit NMDA receptor binding using [^3 H]MK-801 (New England Nuclear, Boston, Mass.). Rat brain cortices were extensively washed to remove endogenous glutamate and glycine. Cortices were homogenized in 20 volumes of ice-cold 0.32M sucrose and centrifuged at 1,000 xg for ten minutes. The supernatant was then centrifuged at 20,000 xg for 20 minutes. The resulting pellet was resuspended in 30 volumes of distilled water and centrifuged at 8,000 xg for 20 minutes. The resulting supernatant was centrifuged at 45,000 xg for 20 minutes and the pellet frozen in liquid nitrogen for at least 24 hours. On the day of the assay, the pellet was thawed at room temperature and resuspended in 30 volumes of ice-cold distilled water and centrifuged at 45,000 xg for 20 minutes. The final pellet was resuspended in 50 mM Tris (pH 7.4)at a concentration of 10 vol/gram wet weight of tissue.
The binding of [^3 H]MK-801 to well washed rat cortical membranes was conducted in the presence of added glutamate (0.001 μM) and glycine (10 μM). Antagonists were incubated with [^3 H]MK-801 (2.5 nM) and membrane aliquots (μg/ml protein)in a final volume of 1 ml at 27° C. for two hours. Nonspecific [^3 H]MK-801 binding was determined in the presence of 100 μM MK-801. Assays were terminated by filtering the samples over Whatman GF/B glass-fiber filters, presoaked in 0.05% polyethyleneimine, followed by a 10 ml ice cold saline wash.
These assays were performed in triplicate, and the mean values of three separate experiments were used to obtain the half maximal effective concentration. Final protein concentrations (0.5 mg/ml)for each assay were determined using the Lowry et al. (1951)method. Lowry, Rosebrough, Farr, and Randall, J. Biol. Chem., 193, 265-275 (1951). Analysis of the data was performed using a four-parameter logistic equation Graphpad Software San Diego, Calif.).

NMDA receptor [3] = assay: Antagonism of NMDA-induced depolarization of rat cortical wedges; type: cell-based; conditions: for NMDA receptor antagonist activity: cortical wedge assay, Table II
Experimental: The depolarization of rat cortical wedges was used to test the selectivity and potency of the formula I compounds as NMDA antagonist using a technique similar to that described by Harrison and Simmonds. Harrison and Simmonds, Bri. J. Pharmacol., 84, 381-391 (1984). Generally, 4-ml aliguots of NMDA (40 μM)were superfused (2 ml/min)on the gray matter at intervals of 15 to 20 minutes until stable responses where obtained. The tissue was then exposed for 15 minutes to various concentrations of the formula I compounds before retesting the agonist. The IC50 values were calculated from linear regression of log dose-response curves, each point the mean of at least three observations on separate slices from more than one animal.
The cortical wedge assay distinguishes between agonist and antagonist activity.

CNS ischemia = conditions: rabbits; cited from earlier work
focal cerebral ischemia [4] = conditions: rats; cited from earlier work
[5] = system: warm water tail withdrawal; conditions: rhesus monkeys; cited from earlier work
focal cerebral ischemia [6] = conditions: cats; cited from earlier work

## NC(CCCP(=O)(O)O)C(=O)O (racemic) [DL-AP5]
Formalin model
  analgesia in formalin model: analgesic

## O=C(O)[C@H]1NC[C@@H]2CC[C@H](Cc3nn[nH]n3)[C@@H]21 (relative stereo) [Compound 33, (1SR,2SR,5RS,8RS)-3-Aza-8-((1(2)H-tetrazol-5-yl)methyl)bicyclo[3.3.0]octane-2-carboxylic Acid]
NMDA receptor [1]
  IC50: 0.67 µM and < 1 µM
NMDA receptor [2]
  IC50: 36.6 ± 7 µM
NMDA receptor [3]; 0.25 h
  IC50: 28.6 ± 5.6 µM
NMDA receptor [3]
  NMDA receptor antagonist activity: NMDA receptor antagonists

## O=C(O)[C@H]1NC[C@@H]2CC[C@@H](Cc3nn[nH]n3)[C@@H]21 (relative stereo) [Compound 38, (1SR,2SR,5RS,8SR)-3-Aza-8-((1(2)H-tetrazol-5-yl)methyl)bicyclo[3.3.0]octane-2-carboxylic Acid]
NMDA receptor [1]
  IC50: 3.13 ± 0.58 µM
NMDA receptor [2]
  IC50: 47.3 ± 7.62 µM
NMDA receptor [3]; 0.25 h
  IC50: > 100 µM

## O=C(O)[C@H]1C[C@@H](Cc2nn[nH]n2)CCN1 (relative stereo) [LY233053]
CNS ischemia
  protection in CNS ischemia model: provided protection

## O=C(O)[C@@H]1C[C@H](CP(=O)(O)O)CCN1 [CGS 19755]
Focal cerebral ischemia [4]
  protection in focal cerebral ischemia model: provided protection
[5]
  analgesia in warm water tail withdrawal procedure: analgesic

## O=C(O)[C@H]1NC[C@@H]2CCC(Cc3nn[nH]n3)[C@@H]21 (stereo partly drawn) [Compound 12, (1SR,2SR,5RS,8SR)-3-Aza-8-((1(2)H-tetrazol-5-yl)methyl)bicyclo[3.3.0]octane-2-carboxylic Acid and (1SR,2SR,5RS,8RS)-3-Aza-8-((1(2)H-tetrazol-5-yl)methyl)bicyclo[3.3.0]octane-2-carboxylic Acid]
NMDA receptor [1]
  IC50: 0.73 µM and < 1 µM
NMDA receptor [2]
  IC50: 49.7 ± 14.2 µM
NMDA receptor [3]; 0.25 h
  IC50: 9.5 ± 5 µM
NMDA receptor [3]
  NMDA receptor antagonist activity: NMDA receptor antagonists

## O=C(O)CC1CC[C@H]2CN[C@H](C(=O)O)[C@@H]12 (stereo partly drawn) [Compound 13, (1SR,2SR,5RS,8SR)-3-Aza-8-(carboxymethyl)bicyclo[3.3.0]octane-2-carboxylicAcid and (1SR,2SR,5RS,8RS)-3-Aza-8-(carboxymethyl)bicyclo[3.3.0]octane-2-carboxylicAcid]
NMDA receptor [1]
  IC50: 1.19 ± 0.54 µM
NMDA receptor [2]
  IC50: 39 ± 8.7 µM
NMDA receptor [3]; 0.25 h
  IC50: 52 ± 8 µM

## O=C(O)CCC1CC[C@H]2CN[C@H](C(=O)O)[C@@H]12 (stereo partly drawn) [Compound 20, (1SR,2SR,5RS,8SR)-3-Aza-8-(2-carboxyethyl)bicyclo[3.3.0]octane-2-carboxylic Acid and (1SR,2SR,5RS,8RS)-3-Aza-8-(2-carboxyethyl)bicyclo[3.3.0]octane-2-carboxylic Acid]
NMDA receptor [1]
  IC50: 1.44 ± 0.04 µM
NMDA receptor [2]
  IC50: 47.3 ± 21 µM
NMDA receptor [3]; 0.25 h
  IC50: > 100 µM

## O=C(O)[C@H]1NC[C@@H]2CCC(CCc3nn[nH]n3)[C@@H]21 (stereo partly drawn) [Compound 21, (1SR,2SR,5RS,8SR)-3-Aza-8-(2-(1 (2)H-tetrazol-5-yl)ethyl)bicyclo[3.3.0]octane-2-carboxylic Acid and (1SR,2SR,5RS,8RS)-3-Aza-8-(2-(1(2)H-tetrazol-5-yl)ethyl)bicyclo[3.3.0]octane-2-carboxylic Acid]
NMDA receptor [1]
  IC50: 4.5 ± 0.98 µM
NMDA receptor [2]
  IC50: 37.7 ± 9.3 µM
NMDA receptor [3]; 0.25 h
  IC50: > 100 µM

## O=C(O)[C@H]1NC[C@@H]2CCC(CCSc3nn[nH]n3)[C@@H]21 (stereo partly drawn) [Compound 22, (1SR,2SR,5RS,8SR)-3-Aza-8-(2-(1(2)H-tetrazole-5-thio)ethyl)bicyclo[3.3.0]octane-2-carboxylic Acid and (1SR,2SR,5RS,8RS)-3-Aza-8-(2-(1(2)H-tetrazole-5-thio)ethyl)bicyclo[3.3.0]octane-2-carboxylic Acid]
NMDA receptor [1]
  IC50: 26.1 ± 6.13 µM
NMDA receptor [2]
  IC50: > 100 µM

## O=C(O)[C@H]1NC[C@@H]2CCC(CCOCc3nn[nH]n3)[C@@H]21 (stereo partly drawn) [Compound 23, (1SR,2SR, 5RS,8SR)-3-Aza-8-(2-(1(2)H-tetrazol-5-ylmethoxy)ethyl)bicyclo[3.3.0]octane-2-carboxylic Acid and (1SR,2SR,5RS,8RS)-3-Aza-8-(2-(1(2)H-tetrazol-5-ylmethoxy)ethyl)bicyclo[3.3.0]octane-2-carboxylic Acid]
NMDA receptor [1]
  IC50: > 100 µM
NMDA receptor [2]
  IC50: > 100 µM
NMDA receptor [3]; NMDA 40 μM, 15 min exposure to compound, rat cortical wedges, read-out: Antagonism of Cortical Wedge Depolarization IC50
  IC50: > 100 µM

## O=C(O)[C@H]1NC[C@@H]2CCC(OCc3nn[nH]n3)[C@@H]21 (stereo partly drawn) [Compound 27, (1SR,2SR,5RS,8SR)-3-Aza-8-((1(2)H-tetrazol-5-yl)methoxy)bicyclo[3.3.0]octane-2-carboxylic Acid and (1SR,2SR,5RS,8RS)-3-Aza-8-((1(2)H-tetrazol-5-yl)methoxy)bicyclo[3.3.0]octane-2-carboxylic Acid]
NMDA receptor [1]
  IC50: 5.66 ± 0.15 µM
NMDA receptor [2]
  IC50: > 100 µM

## O=C(O)C1NCC2CCC(CSc3nn[nH]n3)C21 (stereo not drawn) [Compound 32, (1SR,2SR,5RS,8SR)-3-Aza-8-((1(2)H-tetrazole-5-thio)methyl)bicyclo[3.3.0]octane-2-carboxylic Acid]
NMDA receptor [1]
  IC50: 1.31 ± 0.48 µM
NMDA receptor [2]
  IC50: 27.8 ± 12.2 µM
NMDA receptor [3]; 0.25 h
  IC50: 59.7 ± 10 µM

## O=C(O)[C@H]1CN(C/C=C/P(=O)(O)O)CCN1 [D-(-)CPP-ene]
Focal cerebral ischemia [6]
  protection in focal cerebral ischemia model: provided protection

## C[C@]12N[C@H](Cc3ccccc31)c1ccccc12 [dizocilpine]
Focal cerebral ischemia [6]
  protection in focal cerebral ischemia model: provided protection
Focal cerebral ischemia [4]
  protection in focal cerebral ischemia model: provided protection
